Patent publication US12415794B2 (Edgewise Therapeutics, Inc., priority 2018, dated 2025)

What was measured:
[1] = target: T1, cardiac myofibrils (myosin ATPase); assay: Cardiac Myofibril ATPase Assay (counter screen); type: biochemical; details: myofibrils 1.0 mg/mL, KCl omitted
T1 construct: frozen myofibril pellets obtained from cardiac tissue; from tissue
How it was run: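 Frozen cardiac myofibrils at 1.0 mg/mL final, KCl omitted, in a PK-LDH coupled ATPase assay; ADP production tracked as NADH loss by absorbance at 340 nm. Inhibition taken as reduced rate relative to vehicle controls, with IC50 derived.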

[2] = target: skeletal myofibrils (myosin ATPase); assay: Skeletal Myofibril ATPase Assay; type: biochemical
How it was run: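 Skeletal myofibril ATPase measured by PK-LDH coupled NADH depletion, absorbance 340 nm read every 1.5-2 min over 45 min. Max−min rate normalized to 1% DMSO vehicle as 100%; IC50 from four-parameter logistic fit with bottom ≥0. Cardiac myofibrils used as counter-screen.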

T1 sequence (P12883 whole entry): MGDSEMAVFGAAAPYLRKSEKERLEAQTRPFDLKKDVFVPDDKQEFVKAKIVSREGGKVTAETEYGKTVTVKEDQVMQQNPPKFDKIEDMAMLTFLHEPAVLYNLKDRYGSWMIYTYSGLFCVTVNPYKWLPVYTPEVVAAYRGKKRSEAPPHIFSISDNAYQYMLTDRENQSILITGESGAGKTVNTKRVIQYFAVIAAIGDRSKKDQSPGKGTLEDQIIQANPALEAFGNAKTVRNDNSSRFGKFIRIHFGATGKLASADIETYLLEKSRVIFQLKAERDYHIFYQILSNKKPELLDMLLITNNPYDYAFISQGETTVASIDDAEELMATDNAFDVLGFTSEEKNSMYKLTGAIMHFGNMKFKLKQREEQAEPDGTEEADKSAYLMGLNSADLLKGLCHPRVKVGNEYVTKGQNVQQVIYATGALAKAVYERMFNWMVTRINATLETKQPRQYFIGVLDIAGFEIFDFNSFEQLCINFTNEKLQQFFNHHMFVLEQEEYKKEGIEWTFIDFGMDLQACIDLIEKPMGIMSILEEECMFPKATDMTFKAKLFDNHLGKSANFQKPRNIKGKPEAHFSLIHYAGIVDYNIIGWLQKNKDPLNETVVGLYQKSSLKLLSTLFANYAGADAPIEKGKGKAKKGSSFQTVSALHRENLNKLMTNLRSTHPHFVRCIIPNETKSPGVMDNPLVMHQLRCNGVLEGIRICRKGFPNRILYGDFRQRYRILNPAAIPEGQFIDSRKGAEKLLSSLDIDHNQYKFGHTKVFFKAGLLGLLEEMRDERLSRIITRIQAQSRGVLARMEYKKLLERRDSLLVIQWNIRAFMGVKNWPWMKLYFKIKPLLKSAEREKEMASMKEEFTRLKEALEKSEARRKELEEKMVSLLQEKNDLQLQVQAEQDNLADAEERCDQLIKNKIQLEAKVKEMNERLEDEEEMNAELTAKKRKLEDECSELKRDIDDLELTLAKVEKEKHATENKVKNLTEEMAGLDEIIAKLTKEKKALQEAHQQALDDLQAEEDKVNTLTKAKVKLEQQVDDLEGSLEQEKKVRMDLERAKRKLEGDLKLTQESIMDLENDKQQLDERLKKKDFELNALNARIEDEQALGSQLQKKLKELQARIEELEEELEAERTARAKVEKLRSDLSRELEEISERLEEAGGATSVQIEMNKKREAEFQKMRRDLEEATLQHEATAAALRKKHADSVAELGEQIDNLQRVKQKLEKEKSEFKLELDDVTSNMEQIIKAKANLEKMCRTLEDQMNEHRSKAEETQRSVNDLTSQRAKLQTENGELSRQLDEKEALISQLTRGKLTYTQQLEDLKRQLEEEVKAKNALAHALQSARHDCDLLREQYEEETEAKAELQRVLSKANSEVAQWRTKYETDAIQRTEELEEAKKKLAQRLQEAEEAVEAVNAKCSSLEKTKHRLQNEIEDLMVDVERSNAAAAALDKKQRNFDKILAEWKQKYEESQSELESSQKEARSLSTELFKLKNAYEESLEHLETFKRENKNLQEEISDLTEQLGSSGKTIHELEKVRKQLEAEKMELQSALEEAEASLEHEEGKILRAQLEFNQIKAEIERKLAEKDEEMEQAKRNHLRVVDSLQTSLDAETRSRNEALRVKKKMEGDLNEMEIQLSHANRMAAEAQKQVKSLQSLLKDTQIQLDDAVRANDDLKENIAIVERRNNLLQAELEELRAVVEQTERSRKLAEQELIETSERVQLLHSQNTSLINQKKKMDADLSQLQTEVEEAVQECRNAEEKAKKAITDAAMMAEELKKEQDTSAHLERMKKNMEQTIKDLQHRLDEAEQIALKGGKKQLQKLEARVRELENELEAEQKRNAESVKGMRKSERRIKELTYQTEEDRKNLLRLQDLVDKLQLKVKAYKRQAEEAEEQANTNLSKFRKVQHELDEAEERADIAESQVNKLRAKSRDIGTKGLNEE
T1 sequence (P08590 whole entry partner): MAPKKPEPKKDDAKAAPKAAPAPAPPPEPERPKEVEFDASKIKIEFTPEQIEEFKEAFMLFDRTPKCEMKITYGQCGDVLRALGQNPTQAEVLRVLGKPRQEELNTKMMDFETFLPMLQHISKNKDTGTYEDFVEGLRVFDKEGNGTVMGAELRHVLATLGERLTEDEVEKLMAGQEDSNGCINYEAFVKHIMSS
T1 sequence (P10916 whole entry partner): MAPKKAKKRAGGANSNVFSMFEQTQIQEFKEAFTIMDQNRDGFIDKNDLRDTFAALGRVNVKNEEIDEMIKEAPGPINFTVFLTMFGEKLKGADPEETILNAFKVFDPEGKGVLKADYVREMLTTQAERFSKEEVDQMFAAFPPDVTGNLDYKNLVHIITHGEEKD

| Compound | IC50 ([1]; Table 5B) [µM] | IC50 ([2]; Table 4B) [µM] | IC50 ([1]; Table 5C) [µM] | IC50 ([2]; Table 4C) [µM] |
| --- | --- | --- | --- | --- |
| O=C(Cn1nc(-c2ccc(OCC(F)(F)F)cc2)ccc1=O)NCc1ccc(CO)cc1 [II-24, N-(4-(hydroxymethyl)benzyl)-2-(6-oxo-3-(4-(2,2,2-trifluoroethoxy)phenyl)pyridazin-1(6H)-yl)acetamide] | > 100 | > 100 |  |  |
| O=C(Cn1nc(-c2ccc(OCC(F)(F)F)cc2)ccc1=O)NCc1ccncc1Cl [II-25, N-((3-chloropyridin-4-yl)methyl)-2-(6-oxo-3-(4-(2,2,2-trifluoroethoxy)phenyl)pyridazin-1(6H)-yl)acetamide] | > 100 | > 100 |  |  |
| O=C(Cn1nc(-c2ccc(OCC(F)(F)F)cc2)ccc1=O)NCc1ccc[nH]c1=O [II-26, N-((2-oxo-1,2-dihydropyridin-3-yl)methyl)-2-(6-oxo-3-(4-(2,2,2-trifluoroethoxy)phenyl)pyridazin-1(6H)-yl)acetamide] | > 100 | 10 to 100 |  |  |
| COc1ccc(-c2ccc(=O)n(CC(=O)NCCc3ccccc3)n2)cc1 [IIIa-5, 2-(3-(4-methoxyphenyl)-6-oxopyridazin-1(6H)-yl)-N-phenethylacetamide] |  |  | > 100 | < 10 |
| CCOc1ccc(-c2ccc(=O)n(CC(=O)NC(C)C)n2)cc1 [IIIa-6, 2-(3-(4-ethoxyphenyl)-6-oxopyridazin-1(6H)-yl)-N-isopropylacetamide] |  |  | > 100 | < 10 |
| COc1ccc(-c2ccc(=O)n(CC(=O)NCc3cc(F)ccc3Cl)n2)cc1 [IIIa-7, N-(2-chloro-5-fluorobenzyl)-2-(3-(4-methoxyphenyl)-6-oxopyridazin-1(6H)-yl)acetamide] |  |  | > 100 | < 10 |
| COc1ccc(-c2ccc(=O)n(CC(=O)NC(C)(C)c3ccccc3)n2)cc1 [IIIa-9, 2-(3-(4-methoxyphenyl)-6-oxopyridazin-1(6H)-yl)-N-(2-phenylpropan-2-yl)acetamide] |  |  | > 100 | < 10 |
| COc1ccc(-c2ccc(=O)n(CC(=O)NCc3cccc(C)c3)n2)cc1 [IIIa-10, 2-(3-(4-methoxyphenyl)-6-oxopyridazin-1(6H)-yl)-N-(3-methylbenzyl) acetamide] |  |  | > 100 | < 10 |
| COc1ccc(-c2ccc(=O)n(CC(=O)NCc3ccccc3C(F)(F)F)n2)cc1 [IIIa-11, 2-(3-(4-methoxyphenyl)-6-oxopyridazin-1(6H)-yl)-N-(2-(trifluoromethyl)benzyl)acetamide] |  |  | > 100 | < 10 |
| COc1ccc(-c2ccc(=O)n(CC(=O)NCc3ccc(Cl)cc3Cl)n2)cc1 [IIIa-12, N-(2,4-dichlorobenzyl)-2-(3-(4-methoxyphenyl)-6-oxopyridazin-1(6H)-yl)acetamide] |  |  | > 100 | < 10 |
| COc1ccc(-c2ccc(=O)n(CC(=O)NCc3ccccc3Cl)n2)c(F)c1 [IIIa-13, N-(2-chlorobenzyl)-2-(3-(2-fluoro-4-methoxyphenyl)-6-oxopyridazin-1(6H)-yl)acetamide] |  |  | > 100 | < 10 |
| CCc1ccc(-c2ccc(=O)n(CC(=O)NCc3ccccc3Cl)n2)cc1 [IIIa-18, N-(2-chlorobenzyl)-2-(3-(4-ethylphenyl)-6-oxopyridazin-1(6H)-yl)acetamide] |  |  | > 100 | < 10 |
| CCNC(=O)Cn1nc(-c2ccc(C3CC3)cc2)ccc1=O [IIIa-19] |  |  | > 100 | < 10 |
| COc1ccc(-c2ccc(=O)n(CC(=O)NC3(c4ccccc4Cl)CC3)n2)cc1 [IIIa-20, N-(1-(2-chlorophenyl)cyclopropyl)-2-(3-(4-methoxyphenyl)-6-oxopyridazin-1(6H)-yl)acetamide] |  |  | > 100 | 10 to 100 |
| COc1ccc(-c2ccc(=O)n(CC(=O)NCc3ccccc3Cl)n2)cc1C [IIIa-23, N-(2-chlorobenzyl)-2-(3-(4-methoxy-3-methylphenyl)-6-oxopyridazin-1(6H)-yl)acetamide] |  |  | > 100 | 10 to 100 |
| COc1ccc(-c2ccc(=O)n(CC(=O)NCC3CCOCC3)n2)cc1 [IIIa-29, 2-(3-(4-methoxyphenyl)-6-oxopyridazin-1(6H)-yl)-N-((tetrahydro-2H-pyran-4-yl)methyl) acetamide] |  |  | > 100 | > 100 |
| COc1ccc(-c2ccc(=O)n(CC(=O)NCc3cnoc3)n2)cc1 [IIIa-31, N-(isoxazol-4-ylmethyl)-2-(3-(4-methoxyphenyl)-6-oxopyridazin-1(6H)-yl)acetamide] |  |  | > 100 | > 100 |
| COc1ccc(-c2ccc(=O)n(CC(=O)NCc3cnn(C)c3)n2)cc1 [IIIa-32, 2-(3-(4-methoxyphenyl)-6-oxopyridazin-1(6H)-yl)-N-((1-methyl-1H-pyrazol-4-yl)methyl) acetamide] |  |  | > 100 | > 100 |
| COc1ccc(-c2ccc(=O)n(CC(=O)NCc3ccccc3Cl)n2)cc1 [IIIb-1, N-(2-chlorobenzyl)-2-(3-(4-methoxyphenyl)-6-oxopyridazin-1(6H)-yl)acetamide] |  |  | > 100 | < 10 |
| COc1ccc(-c2ccc(=O)n(CC(=O)Nc3cccc4[nH]ccc34)n2)c(F)c1 [IIIb-2, 2-(3-(2-fluoro-4-methoxyphenyl)-6-oxopyridazin-1(6H)-yl)-N-(1H-indol-4-yl)acetamide] |  |  | > 100 | < 10 |
| COc1ccc(-c2ccc(=O)n(CC(=O)Nc3cccc4[nH]ccc34)n2)cc1 [IIIb-3, N-(1H-indol-4-yl)-2-(3-(4-methoxyphenyl)-6-oxopyridazin-1(6H)-yl)acetamide] |  |  | > 100 | < 10 |
| COc1ccc(-c2ccc(=O)n(CC(=O)Nc3cccc4c3ccn4C)n2)cc1 [IIIb-4, 2-(3-(4-methoxyphenyl)-6-oxopyridazin-1(6H)-yl)-N-(1-methyl-1H-indol-4-yl)acetamide] |  |  | 10 to 100 | < 10 |

Further lines, results first:

| IC50 ([1]; Table 5B) [µM] | IC50 ([2]; Table 4B) [µM] | IC50 ([1]; Table 5C) [µM] | IC50 ([2]; Table 4C) [µM] | Compound |
| --- | --- | --- | --- | --- |
|  |  | > 100 | < 10 | CCOc1ccc(-c2ccc(=O)n(CC(=O)NCc3ccccc3Cl)n2)cc1 [IIIa-1, N-(2-chlorobenzyl)-2-(3-(4-ethoxyphenyl)-6-oxopyridazin-1(6H)-yl)acetamide] |
|  |  | > 100 | < 10 | CC(C)Oc1ccc(-c2ccc(=O)n(CC(=O)NCc3ccccc3Cl)n2)cc1 [IIIa-2, N-(2-chlorobenzyl)-2-(3-(4-isopropoxyphenyl)-6-oxopyridazin-1(6H)-yl)acetamide] |
|  |  | > 100 | < 10 | CCNC(=O)Cn1nc(-c2ccc(OC)cc2)ccc1=O [IIIa-3, N-ethyl-2-(3-(4-methoxyphenyl)-6-oxopyridazin-1(6H)-yl)acetamide] |
|  |  | > 100 | < 10 | COc1ccc(-c2ccc(=O)n(CC(=O)NCC3CCCCC3)n2)cc1 [IIIa-4] |
|  |  | > 100 | < 10 | COc1ccc(-c2ccc(=O)n(CC(=O)NCc3cccc(Cl)c3)n2)cc1 [IIIa-8, N-(3-chlorobenzyl)-2-(3-(4-methoxyphenyl)-6-oxopyridazin-1(6H)-yl)acetamide] |
|  |  | > 100 | < 10 | COc1ccc(-c2ccc(=O)n(CC(=O)NCc3ccc(C)cc3)n2)cc1 [IIIa-15, 2-(3-(4-methoxyphenyl)-6-oxopyridazin-1(6H)-yl)-N-(4-methylbenzyl) acetamide] |
|  |  | > 100 | < 10 | COc1ccc(-c2ccc(=O)n(CC(=O)NCc3ccccc3C)n2)cc1 [IIIa-16, 2-(3-(4-methoxyphenyl)-6-oxopyridazin-1(6H)-yl)-N-(2-methylbenzyl) acetamide] |
|  |  | > 100 | < 10 | COc1ccc(-c2ccc(=O)n(CC(=O)NCc3ccc(Cl)cc3)n2)cc1 [IIIa-17, N-(4-chlorobenzyl)-2-(3-(4-methoxyphenyl)-6-oxopyridazin-1(6H)-yl)acetamide] |
|  |  | > 100 | 10 to 100 | CNC(=O)Cn1nc(-c2ccc(OC)cc2)ccc1=O [IIIa-21, 2-(3-(4-methoxyphenyl)-6-oxopyridazin-1(6H)-yl)-N-methylacetamide] |
|  |  | > 100 | 10 to 100 | COc1ccc(-c2ccc(=O)n(CC(=O)NCc3ccccc3Cl)n2)c(C)c1 [IIIa-22, N-(2-chlorobenzyl)-2-(3-(4-methoxy-2-methylphenyl)-6-oxopyridazin-1(6H)-yl)acetamide] |
|  |  | > 100 | 10 to 100 | COc1ccc(-c2ccc(=O)n(CC(=O)NCc3ccccc3Cl)n2)cc1F [IIIa-24, N-(2-chlorobenzyl)-2-(3-(3-fluoro-4-methoxyphenyl)-6-oxopyridazin-1(6H)-yl)acetamide] |
|  |  | > 100 | 10 to 100 | COc1ccc(-c2ccc(=O)n(CC(=O)NC(C)c3ccccc3Cl)n2)cc1 (stereo not drawn) [IIIa-25, N-(1-(2-chlorophenyl)ethyl)-2-(3-(4-methoxyphenyl)-6-oxopyridazin-1(6H)-yl)acetamide] |
|  |  | > 100 | 10 to 100 | COc1ccc(-c2ccc(=O)n(CC(=O)NCc3ccon3)n2)cc1 [IIIa-26] |
|  |  | > 100 | > 100 | COc1ccc(-c2ccc(=O)n(CC(=O)NCc3cnccn3)n2)cc1 [IIIa-28, 2-(3-(4-methoxyphenyl)-6-oxopyridazin-1(6H)-yl)-N-(pyrazin-2-ylmethyl)acetamide] |
|  |  | > 100 | > 100 | COc1ccc(-c2ccc(=O)n(CC(=O)NCc3ccccn3)n2)cc1 [IIIa-30, 2-(3-(4-methoxyphenyl)-6-oxopyridazin-1(6H)-yl)-N-(pyridin-2-ylmethyl) acetamide] |
|  |  | > 100 | > 100 | COc1ccc(-c2ccc(=O)n(CC(=O)NCc3nccn3C)n2)cc1 [IIIa-33, 2-(3-(4-methoxyphenyl)-6-oxopyridazin-1(6H)-yl)-N-((1-methyl-1H-imidazol-2-yl)methyl) acetamide] |
|  |  | > 100 | > 100 | COc1ccc(-c2ccc(=O)n(CC(=O)NCc3ccno3)n2)cc1 [IIIa-34, N-(isoxazol-5-ylmethyl)-2-(3-(4-methoxyphenyl)-6-oxopyridazin-1(6H)-yl)acetamide] |
